# Literature values as cited in US20240325308A1, “AMNIOTIC FLUID STABILIZED COMPOSITIONS AND METHODS FOR IN UTERO DELIVERY OF THERAPEUTIC AGENTS” (The Trustees of the University of Pennsylvania, priority 2021, published 2024).
# Tested on: fetal lung
# Details: vitelline vein injection, gestational age E16 fetuses
smiles,measurement,value
"CCCCCCCCCCCCC(O)CN(CCOCCN(CC(O)CCCCCCCCCCCC)CC(O)CCCCCCCCCCCC)CCN1CCN(CCOCCN(CC(O)CCCCCCCCCCCC)CC(O)CCCCCCCCCCCC)CC1 (stereo not shown) [B-4, 1,1′-((2-(2-(4-(2-((2-(2-(bis(2-hydroxytetradecyl)amino)ethoxy)ethyl)(2-hydroxytetradecyl)amino)ethyl)piperazin-1-yl)ethoxy)ethyl)azanediyl)bis(tetradecan-2-ol)]",Fetal lung delivery of LNPs formulated with the ionizable lipid,highest fetal lung delivery
